The nature of data set [1]: Oral bioavailability in Sprague-Dawley rat plasma at 3 mg/kg measured upto 8 hrs by LC-MS/MS method. The data set is classed as ADME, organism-based.
Data set [2] can be described thus: Clearance in Sprague-Dawley rat plasma at 1 mg/kg, iv measured upto 8 hrs by LC-MS/MS analysis. The data set is classed as ADME, organism-based.
The species named for data set [3] is Homo sapiens. The data set can be described thus: Selectivity ratio of EC50 for PI3Kalpha H1047R mutant in human HCC1954 cells assessed as reduction in PRAS40 phosphorylation to EC50 for wild type PI3Kalpha in human HDQ-P1 cells assessed as reduction in PRAS40 phosphorylation. The data set is classed as cell-based.
Data set [4] concerns the target T1, Phosphatidylinositol 4,5-bisphosphate 3-kinase catalytic subunit alpha isoform (Homo sapiens, UniProt P42336). The data set can be described thus: Inhibition of PI3Kalpha (unknown origin) using PIP2:3PS as substrate in presence of ATP measured after 120 mins by ADP-Glo assay.
Data set [5] is described as follows: Apparent permeability across apical to basolateral side in MDCK cells at 10 uM measured upto 180 mins by LC-MS/MS method. The data set is classed as ADME, cell-based, Canis lupus familiaris. Conditions: dog.
Data set [6] is described as follows: Lipophilicity, logD of compound in 1-Octanol/PBS at pH 7.4 by LC-MS/MS method. The data set is classed as physicochemical.
The species entered for data set [7] is Homo sapiens. The data set can be described thus: Selectivity ratio of Ki for PI3Kdelta (unknown origin) to Ki for PI3Kalpha (unknown origin).
The target in data set [8] is Phosphatidylinositol 4,5-bisphosphate 3-kinase catalytic subunit alpha isoform (Homo sapiens, UniProt P42336, H1047R).
The target in data set [9] is T2, Phosphatidylinositol 4,5-bisphosphate 3-kinase catalytic subunit delta isoform (Homo sapiens) (UniProt O00329).
T2 sequence (whole entry): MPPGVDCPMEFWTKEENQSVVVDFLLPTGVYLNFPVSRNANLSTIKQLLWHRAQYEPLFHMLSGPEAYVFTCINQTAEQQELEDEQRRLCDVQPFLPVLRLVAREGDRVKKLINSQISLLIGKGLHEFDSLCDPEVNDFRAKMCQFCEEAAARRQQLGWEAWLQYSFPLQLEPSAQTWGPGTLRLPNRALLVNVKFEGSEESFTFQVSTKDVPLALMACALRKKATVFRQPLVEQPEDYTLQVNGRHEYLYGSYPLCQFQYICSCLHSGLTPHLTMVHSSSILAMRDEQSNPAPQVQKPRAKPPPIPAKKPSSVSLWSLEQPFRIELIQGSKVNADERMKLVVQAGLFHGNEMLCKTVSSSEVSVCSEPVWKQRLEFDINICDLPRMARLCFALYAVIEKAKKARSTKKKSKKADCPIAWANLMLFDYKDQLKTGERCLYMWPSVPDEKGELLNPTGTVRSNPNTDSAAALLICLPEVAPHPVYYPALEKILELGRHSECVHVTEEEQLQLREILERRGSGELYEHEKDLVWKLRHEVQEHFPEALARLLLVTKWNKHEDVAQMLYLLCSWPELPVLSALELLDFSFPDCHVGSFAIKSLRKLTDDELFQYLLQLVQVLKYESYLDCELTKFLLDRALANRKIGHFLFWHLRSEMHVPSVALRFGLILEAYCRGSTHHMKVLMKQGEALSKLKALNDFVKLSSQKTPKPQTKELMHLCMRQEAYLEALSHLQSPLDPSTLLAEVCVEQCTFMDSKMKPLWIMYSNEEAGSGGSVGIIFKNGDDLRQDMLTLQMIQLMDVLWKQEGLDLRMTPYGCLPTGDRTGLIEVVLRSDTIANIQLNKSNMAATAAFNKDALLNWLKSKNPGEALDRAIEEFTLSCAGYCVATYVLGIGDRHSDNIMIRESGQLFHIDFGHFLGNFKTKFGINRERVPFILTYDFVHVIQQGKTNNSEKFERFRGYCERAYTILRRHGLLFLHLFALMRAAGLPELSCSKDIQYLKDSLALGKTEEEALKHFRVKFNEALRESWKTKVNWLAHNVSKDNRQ
The data set can be described thus: Inhibition of PI3Kdelta in human B-cells assessed as reduction in CD69 expression preincubated for 1 hr followed by IgM stimulation for 18 hrs by flow cytometry analysis. The data set is classed as cell-based. Conditions: B-cell. A general note: A flow cytometer gives signals particle by particle.

The nature of data set [10]: Oral bioavailability in Sprague-Dawley rat plasma at 5 mg/kg measured upto 8 hrs by LC-MS/MS method. The data set is classed as ADME, organism-based.
Data set [11] relates to Phosphatidylinositol 4,5-bisphosphate 3-kinase catalytic subunit alpha isoform (Homo sapiens), P42336 [H1047R]. The data set can be described thus: Induction of P110alpha H1047R mutant degradation in human HCC1954 cells at 0.012 to 1 uM after 24 hrs. The data set is classed as cell-based. As to conditions: dose 0.012-1 µM.
Data set [12] concerns the target T1, Phosphatidylinositol 4,5-bisphosphate 3-kinase catalytic subunit alpha isoform. The data set can be described thus: Inhibition of PI3Kalpha in human HDQ-P1 cells assessed as reduction in PRAS40 phosphorylation after 24 hrs by electrochemiluminescent assay. The data set is classed as cell-based.
Data set [13] is described as follows: Kinetic solubility of the compound at pH 7.4. The data set is classed as physicochemical. As to conditions: buffer, read-out: Kinetic_solubility.
Data set [14] deals with Phosphatidylinositol 4,5-bisphosphate 3-kinase catalytic subunit alpha isoform (Homo sapiens), P42336 [H1047R]. The data set can be described thus: Inhibition of PI3Kalpha H1047R mutant in human HCC1954 cells assessed as reduction in PRAS40 phosphorylation after 24 hrs by electrochemiluminescent assay.
The species entered for data set [15] is Homo sapiens. The data set can be described thus: Selectivity ratio of IC90 for inhibition of PI3Kdelta in human B-cells assessed as reduction in CD69 expression to EC50 for inhibition of PI3Kalpha H1047R mutant in human HCC1954 cells. The data set is classed as cell-based.

≈ marks a conversion by molar mass, not a printed value. Calls of active or inactive are those of the source. The calls are words filed in the database; no cut-off is given here.

The source of these data is ChEMBL document CHEMBL5150064 (J Med Chem, 2022).

Phosphatidylinositol 4,5-bisphosphate 3-kinase catalytic subunit alpha isoform (Homo sapiens, UniProt P42336, H1047R), sequence (P42336 whole entry H1047R, canonical isoform): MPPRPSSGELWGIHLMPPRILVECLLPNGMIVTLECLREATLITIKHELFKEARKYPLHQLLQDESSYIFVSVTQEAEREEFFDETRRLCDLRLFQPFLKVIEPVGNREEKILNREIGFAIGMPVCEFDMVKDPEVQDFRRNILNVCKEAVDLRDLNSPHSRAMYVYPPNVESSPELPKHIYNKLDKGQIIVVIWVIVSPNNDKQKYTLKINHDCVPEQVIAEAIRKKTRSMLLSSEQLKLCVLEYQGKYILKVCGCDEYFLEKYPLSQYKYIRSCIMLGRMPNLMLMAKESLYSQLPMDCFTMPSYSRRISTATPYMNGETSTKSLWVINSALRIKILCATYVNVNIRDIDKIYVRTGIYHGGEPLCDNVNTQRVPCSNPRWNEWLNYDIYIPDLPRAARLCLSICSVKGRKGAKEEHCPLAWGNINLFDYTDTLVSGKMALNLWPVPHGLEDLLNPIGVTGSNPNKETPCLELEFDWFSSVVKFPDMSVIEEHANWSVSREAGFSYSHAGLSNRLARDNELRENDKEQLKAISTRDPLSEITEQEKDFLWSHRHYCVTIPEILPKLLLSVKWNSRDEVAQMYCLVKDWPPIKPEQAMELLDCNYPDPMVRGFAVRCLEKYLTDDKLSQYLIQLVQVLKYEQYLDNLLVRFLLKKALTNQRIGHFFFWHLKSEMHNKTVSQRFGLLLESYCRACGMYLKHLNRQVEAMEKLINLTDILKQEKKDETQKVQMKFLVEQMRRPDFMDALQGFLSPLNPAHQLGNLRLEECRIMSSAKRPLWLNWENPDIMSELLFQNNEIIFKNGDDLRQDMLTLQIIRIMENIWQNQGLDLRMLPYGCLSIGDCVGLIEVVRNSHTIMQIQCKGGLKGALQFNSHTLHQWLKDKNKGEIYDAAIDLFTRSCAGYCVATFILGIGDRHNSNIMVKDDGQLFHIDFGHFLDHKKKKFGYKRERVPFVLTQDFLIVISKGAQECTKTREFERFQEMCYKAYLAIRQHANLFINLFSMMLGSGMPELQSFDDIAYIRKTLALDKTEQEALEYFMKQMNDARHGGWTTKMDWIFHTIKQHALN
Phosphatidylinositol 4,5-bisphosphate 3-kinase catalytic subunit alpha isoform (Homo sapiens), P42336 [H1047R], sequence (P42336 whole entry H1047R, canonical isoform): as above
T1 sequence (P42336 whole entry, canonical isoform): as the sequence (P42336 whole entry H1047R, canonical isoform) above, with R1047H counted along it

As to `NC(=O)[C@@H](Nc1ccc2c(c1)OCCn1cc(N3C(=O)OC[C@H]3C(F)(F)F)nc1-2)C1CC1`, the bioavailability (usually dose-corrected exposure relative to a reference, in per cent) in [1] came to 98%. Besides, the clearance (as a rule, the rate of elimination divided by the concentration) in [2] came to 94 mL/min/kg. The Ratio EC50 in [3] was determined as 1.1. The inhibition constant Ki (in general, the equilibrium dissociation constant of an inhibitor or competing ligand from its target) in data set [4] was 0.1 nM. In addition, the Papp A→B (as a rule, how fast a substance crosses the layer from the apical side) at 3 h, 10 µM in [5] is 1.1 ×10⁻⁶ cm/s. The logD – broadly, lipophilicity at a set pH, counting ionised and neutral species – in data set [6] came out at 1.2. In [7], the Ratio Ki amounted to 285. The EC50 (usually the midpoint of the concentration-response curve) in data set [8] was found to be 52 nM.

With `NC(=O)[C@@H](Nc1ccc2c(c1)OCCn1cc(N3C(=O)OC[C@H]3C(F)F)nc1-2)C1CC1`, the 90% effect concentration (IC90) – broadly, the concentration needed for an effect of 90% – in [9] came to 307 nM. The molecule also displayed a bioavailability in data set [10] of 41%. The clearance in data set [2] came to 67 mL/min/kg. Further, the Papp A→B at 3 h, 10 µM in [5] came out at 3.2 ×10⁻⁶ cm/s. For the same molecule, the log distribution coefficient (logD) in data set [6] was 1.2. In [11], the result was Active. For the same molecule, the midpoint of the response in data set [8], the EC50, lay at 28 nM.

Regarding `CC(C)n1ncnc1-c1cn2c(n1)-c1ccc(O[C@@H](C)C(N)=O)cc1OCC2`, in [9], the concentration for an effect of 90% (IC90) amounted to 147 nM. In data set [6], this molecule returned a logD of 1.9.

`NC(=O)[C@@H]1CCCN1c1ccc2c(c1)OCCn1cc(N3CC[C@H](O)C3=O)nc1-2` returned a bioavailability in data set [10] of 9%. In addition, in data set [2], the clearance was 27 mL/min/kg. In data set [3], the Ratio EC50 turned out to be 5.2. In addition, the concentration for a half-maximal effect (EC50) in [12] stood at 327 nM; in data set [8], 63 nM. Further, in data set [13], the solubility kinetic was determined as 143 µM (≈ 56.8 µg/mL). The Ki in [4] worked out at 0.355 nM. For the same molecule, the apical-to-basolateral permeability (Papp A→B) at 3 h, 10 µM in data set [5] is 0.3 ×10⁻⁶ cm/s. The logD in data set [6] is 0.4. Further, the Ratio Ki in data set [7] is 13.

For the molecule `NC(=O)[C@@H]1CCCN1c1ccc2c(c1)OCCn1cc(N3C(=O)OC[C@H]3CF)nc1-2`, in data set [13], the solubility kinetic turned out to be 159 µM (≈ 66.1 µg/mL). Also, the inhibition entry in data set [14] was “Active”. In addition, in data set [5], the apparent permeability from apical to basolateral (Papp A→B) at 3 h, 10 µM worked out at 2.6 ×10⁻⁶ cm/s. Moreover, in data set [6], the logD stood at 0.8. Moreover, the outcome in data set [11] was Active. Moreover, in data set [7], the Ratio Ki was determined as 46.

`Cc1nc(-c2cn3c(n2)-c2ccc(-c4cnn(C(C)(C)C(N)=O)c4)cc2OCC3)n(C(C)C)n1` [TASELISIB]: the IC90 in data set [9] amounted to 3.1 nM. The same molecule came in with a pH-dependent lipophilicity (logD) in data set [6] of 2.3.

Take `NC(=O)[C@@H]1CCCN1c1ccc2c(c1)OCCn1cc(N3C(=O)OC[C@H]3C(F)F)nc1-2`: the concentration for an effect of 90% (IC90) in [9] came to 103 nM. In addition, the Selectivity ratio in data set [15] amounted to 6.4. In addition, the bioavailability in [10] was 35%. Also, the clearance in data set [2] amounted to 41 mL/min/kg. The solubility kinetic in data set [13] was 11 µM (≈ 4.77 µg/mL). The inhibition result in [14] is “Active”. Moreover, the apical-to-basolateral permeability (Papp A→B) at 3 h, 10 µM in data set [5] came out at 4.3 ×10⁻⁶ cm/s. The same molecule registered a pH-dependent lipophilicity (logD) in data set [6] of 1.3. In addition, the result in data set [11] was Active. Besides, the Ratio Ki in data set [7] is 34.
